For three compounds, remaining activity results are on record in patent US20240246942A1, “KINASE INHIBITORS FOR THE TREATMENT OF NEURODEGENERATIVE DISEASES” (priority 2020, published 2024).

Common to all, as to assay: biochemical
The target of test [1] is T1, panel of 374 wild-type kinases (Homo sapiens, UniProt P12931).
T1 construct: purchased Reaction Biology Corporation
The conditions noted are these: read-out: % Enzyme Activity (relative to DMSO controls), c-Src.

The target of test [2] is T2, panel of 374 wild-type kinases (Homo sapiens, UniProt Q96NX5).
T2 construct: purchased Reaction Biology Corporation
T2 sequence (Q96NX5 whole entry): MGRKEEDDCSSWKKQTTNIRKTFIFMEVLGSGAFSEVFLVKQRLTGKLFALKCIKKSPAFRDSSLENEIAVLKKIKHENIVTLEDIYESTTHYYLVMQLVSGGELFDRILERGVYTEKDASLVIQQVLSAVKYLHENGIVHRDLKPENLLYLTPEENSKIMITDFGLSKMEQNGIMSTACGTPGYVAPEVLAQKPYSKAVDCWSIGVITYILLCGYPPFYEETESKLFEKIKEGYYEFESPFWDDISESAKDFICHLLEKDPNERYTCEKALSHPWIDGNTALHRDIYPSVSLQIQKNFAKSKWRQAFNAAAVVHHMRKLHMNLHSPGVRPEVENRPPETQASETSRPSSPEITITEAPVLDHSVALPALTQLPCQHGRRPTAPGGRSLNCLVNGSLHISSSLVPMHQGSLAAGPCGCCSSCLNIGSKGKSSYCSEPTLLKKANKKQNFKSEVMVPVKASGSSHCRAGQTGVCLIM
The conditions noted are these: read-out: % Enzyme Activity (relative to DMSO controls), CAMK1g.

The target of test [3] is T3, panel of 374 wild-type kinases (Homo sapiens, UniProt Q9UEW8).
T3 construct: purchased Reaction Biology Corporation
The conditions noted are these: kinase STK39/STLK3, read-out: % Enzyme Activity (relative to DMSO controls).

Test [4] has as its target T4, panel of 374 wild-type kinases (Homo sapiens, UniProt Q05513).
T4 construct: purchased Reaction Biology Corporation
T4 sequence (Q05513 1-592): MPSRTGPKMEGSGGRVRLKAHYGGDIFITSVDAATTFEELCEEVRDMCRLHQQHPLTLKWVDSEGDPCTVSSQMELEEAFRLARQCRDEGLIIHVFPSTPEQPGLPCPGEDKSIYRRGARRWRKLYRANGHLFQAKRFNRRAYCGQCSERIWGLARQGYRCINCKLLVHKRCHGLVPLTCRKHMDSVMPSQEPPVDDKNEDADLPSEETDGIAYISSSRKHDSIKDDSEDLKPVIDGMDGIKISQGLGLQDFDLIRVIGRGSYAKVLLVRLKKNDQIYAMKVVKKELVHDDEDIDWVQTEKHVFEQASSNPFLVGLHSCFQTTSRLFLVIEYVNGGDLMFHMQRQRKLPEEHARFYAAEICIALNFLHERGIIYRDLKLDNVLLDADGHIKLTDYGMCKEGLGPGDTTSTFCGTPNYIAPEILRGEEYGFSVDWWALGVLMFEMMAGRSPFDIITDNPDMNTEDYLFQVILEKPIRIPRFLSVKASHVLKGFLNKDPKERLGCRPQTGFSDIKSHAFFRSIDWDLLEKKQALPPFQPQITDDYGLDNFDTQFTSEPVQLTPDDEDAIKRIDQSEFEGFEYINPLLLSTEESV
The settings on record: read-out: % Enzyme Activity (relative to DMSO controls), kinase PKCzeta.

The target of test [5] is T5, panel of 374 wild-type kinases (Homo sapiens, UniProt Q8N4C8).
T5 construct: purchased Reaction Biology Corporation
T5 sequence (Q8N4C8 whole entry): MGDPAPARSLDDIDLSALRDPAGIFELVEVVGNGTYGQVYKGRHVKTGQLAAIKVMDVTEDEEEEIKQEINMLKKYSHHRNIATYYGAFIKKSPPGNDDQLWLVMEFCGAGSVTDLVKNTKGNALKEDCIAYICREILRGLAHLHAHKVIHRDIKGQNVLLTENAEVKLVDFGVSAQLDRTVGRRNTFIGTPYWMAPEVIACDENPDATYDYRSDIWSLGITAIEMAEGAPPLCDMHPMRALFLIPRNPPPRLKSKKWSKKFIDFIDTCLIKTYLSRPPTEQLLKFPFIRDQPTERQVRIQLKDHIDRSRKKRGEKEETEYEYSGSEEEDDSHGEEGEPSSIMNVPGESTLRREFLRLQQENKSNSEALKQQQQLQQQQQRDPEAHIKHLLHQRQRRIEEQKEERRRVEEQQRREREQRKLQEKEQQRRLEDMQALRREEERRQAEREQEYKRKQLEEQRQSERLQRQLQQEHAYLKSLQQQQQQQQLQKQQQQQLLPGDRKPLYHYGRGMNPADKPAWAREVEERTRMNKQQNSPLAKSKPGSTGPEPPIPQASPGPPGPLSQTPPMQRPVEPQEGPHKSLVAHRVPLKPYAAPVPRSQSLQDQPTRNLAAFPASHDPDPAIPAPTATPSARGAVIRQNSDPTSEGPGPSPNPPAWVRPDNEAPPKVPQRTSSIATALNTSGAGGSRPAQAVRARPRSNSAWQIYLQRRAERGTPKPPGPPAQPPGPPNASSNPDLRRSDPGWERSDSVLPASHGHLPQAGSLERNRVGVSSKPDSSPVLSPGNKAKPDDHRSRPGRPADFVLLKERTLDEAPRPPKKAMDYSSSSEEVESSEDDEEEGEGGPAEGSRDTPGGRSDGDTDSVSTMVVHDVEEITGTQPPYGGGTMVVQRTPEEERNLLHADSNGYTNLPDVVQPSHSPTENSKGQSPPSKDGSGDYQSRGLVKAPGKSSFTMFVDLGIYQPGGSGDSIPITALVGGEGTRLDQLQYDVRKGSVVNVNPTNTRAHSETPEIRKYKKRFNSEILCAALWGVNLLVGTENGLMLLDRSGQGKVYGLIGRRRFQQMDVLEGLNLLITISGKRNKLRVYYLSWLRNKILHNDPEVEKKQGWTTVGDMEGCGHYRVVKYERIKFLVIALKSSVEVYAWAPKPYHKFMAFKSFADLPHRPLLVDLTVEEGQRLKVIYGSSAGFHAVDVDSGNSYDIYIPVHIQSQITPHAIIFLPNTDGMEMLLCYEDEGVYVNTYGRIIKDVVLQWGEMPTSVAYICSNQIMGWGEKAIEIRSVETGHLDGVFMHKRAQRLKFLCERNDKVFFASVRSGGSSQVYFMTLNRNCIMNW
The conditions noted are these: read-out: % Enzyme Activity (relative to DMSO controls), MINK/MINK1.

The target of test [6] is T6, panel of 374 wild-type kinases (Homo sapiens, UniProt P51956).
T6 construct: purchased Reaction Biology Corporation
T6 sequence (P51956 1-506): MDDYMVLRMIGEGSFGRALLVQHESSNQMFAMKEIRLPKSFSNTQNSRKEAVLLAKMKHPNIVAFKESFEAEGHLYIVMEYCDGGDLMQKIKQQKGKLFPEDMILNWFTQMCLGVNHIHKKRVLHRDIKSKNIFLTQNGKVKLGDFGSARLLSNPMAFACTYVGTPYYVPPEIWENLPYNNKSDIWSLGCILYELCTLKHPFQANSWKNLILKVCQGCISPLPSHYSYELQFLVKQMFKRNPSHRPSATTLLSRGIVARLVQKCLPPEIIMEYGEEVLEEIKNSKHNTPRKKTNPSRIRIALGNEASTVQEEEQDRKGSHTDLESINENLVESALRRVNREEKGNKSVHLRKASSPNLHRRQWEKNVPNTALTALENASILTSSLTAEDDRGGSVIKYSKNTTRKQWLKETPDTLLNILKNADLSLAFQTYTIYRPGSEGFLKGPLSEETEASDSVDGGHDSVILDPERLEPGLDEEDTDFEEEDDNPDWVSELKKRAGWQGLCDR
The conditions noted are these: read-out: % Enzyme Activity (relative to DMSO controls), NEK3.

The target in test [7] is T7, panel of 374 wild-type kinases (Homo sapiens, UniProt Q8IVH8).
T7 construct: purchased Reaction Biology Corporation
T7 sequence (Q8IVH8 1-894): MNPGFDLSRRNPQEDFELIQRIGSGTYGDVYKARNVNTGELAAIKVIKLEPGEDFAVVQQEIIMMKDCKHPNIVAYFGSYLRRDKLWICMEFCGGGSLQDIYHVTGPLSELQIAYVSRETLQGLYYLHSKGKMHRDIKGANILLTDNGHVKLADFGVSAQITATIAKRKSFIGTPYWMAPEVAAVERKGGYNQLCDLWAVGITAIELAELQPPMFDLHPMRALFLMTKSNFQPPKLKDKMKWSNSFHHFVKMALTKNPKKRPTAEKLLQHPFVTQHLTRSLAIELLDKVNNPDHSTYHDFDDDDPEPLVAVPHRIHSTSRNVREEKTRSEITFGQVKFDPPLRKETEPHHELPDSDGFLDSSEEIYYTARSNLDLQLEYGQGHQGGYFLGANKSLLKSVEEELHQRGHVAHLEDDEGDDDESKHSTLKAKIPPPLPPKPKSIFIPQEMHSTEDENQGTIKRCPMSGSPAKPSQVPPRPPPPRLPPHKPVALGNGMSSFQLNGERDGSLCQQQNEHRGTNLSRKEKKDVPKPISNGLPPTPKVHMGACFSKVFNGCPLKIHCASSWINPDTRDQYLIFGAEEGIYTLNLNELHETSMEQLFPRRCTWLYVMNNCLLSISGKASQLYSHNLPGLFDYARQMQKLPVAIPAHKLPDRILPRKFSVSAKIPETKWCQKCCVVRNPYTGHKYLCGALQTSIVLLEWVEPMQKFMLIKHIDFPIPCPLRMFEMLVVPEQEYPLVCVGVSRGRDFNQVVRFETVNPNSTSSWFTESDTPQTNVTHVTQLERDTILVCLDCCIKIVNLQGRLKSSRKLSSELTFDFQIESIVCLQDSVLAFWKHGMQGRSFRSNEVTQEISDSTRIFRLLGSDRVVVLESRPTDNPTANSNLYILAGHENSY
The settings on record: read-out: % Enzyme Activity (relative to DMSO controls), GLK/MAP4K3.

The target of test [8] is T8, panel of 374 wild-type kinases (Homo sapiens, UniProt P37173).
T8 construct: purchased Reaction Biology Corporation
T8 sequence (P37173 23-567): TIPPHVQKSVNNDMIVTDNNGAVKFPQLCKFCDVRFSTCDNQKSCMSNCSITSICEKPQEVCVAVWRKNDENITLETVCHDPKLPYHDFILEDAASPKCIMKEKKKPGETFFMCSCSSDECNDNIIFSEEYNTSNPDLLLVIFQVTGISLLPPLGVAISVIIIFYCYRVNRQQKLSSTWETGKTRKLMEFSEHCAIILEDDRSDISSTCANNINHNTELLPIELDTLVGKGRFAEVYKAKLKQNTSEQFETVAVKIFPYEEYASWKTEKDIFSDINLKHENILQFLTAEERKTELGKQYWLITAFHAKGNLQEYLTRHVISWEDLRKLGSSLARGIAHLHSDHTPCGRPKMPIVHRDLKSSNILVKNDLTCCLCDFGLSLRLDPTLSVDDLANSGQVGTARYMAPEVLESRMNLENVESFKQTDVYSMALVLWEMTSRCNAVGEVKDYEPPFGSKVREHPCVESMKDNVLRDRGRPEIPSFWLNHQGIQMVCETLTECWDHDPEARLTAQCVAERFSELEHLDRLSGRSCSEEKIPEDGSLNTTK
The settings on record: read-out: % Enzyme Activity (relative to DMSO controls), kinase TGFBR2.

In test [9] the target is T9, panel of 374 wild-type kinases (Homo sapiens, UniProt P54756).
T9 construct: purchased Reaction Biology Corporation
T9 sequence (P54756 25-1037): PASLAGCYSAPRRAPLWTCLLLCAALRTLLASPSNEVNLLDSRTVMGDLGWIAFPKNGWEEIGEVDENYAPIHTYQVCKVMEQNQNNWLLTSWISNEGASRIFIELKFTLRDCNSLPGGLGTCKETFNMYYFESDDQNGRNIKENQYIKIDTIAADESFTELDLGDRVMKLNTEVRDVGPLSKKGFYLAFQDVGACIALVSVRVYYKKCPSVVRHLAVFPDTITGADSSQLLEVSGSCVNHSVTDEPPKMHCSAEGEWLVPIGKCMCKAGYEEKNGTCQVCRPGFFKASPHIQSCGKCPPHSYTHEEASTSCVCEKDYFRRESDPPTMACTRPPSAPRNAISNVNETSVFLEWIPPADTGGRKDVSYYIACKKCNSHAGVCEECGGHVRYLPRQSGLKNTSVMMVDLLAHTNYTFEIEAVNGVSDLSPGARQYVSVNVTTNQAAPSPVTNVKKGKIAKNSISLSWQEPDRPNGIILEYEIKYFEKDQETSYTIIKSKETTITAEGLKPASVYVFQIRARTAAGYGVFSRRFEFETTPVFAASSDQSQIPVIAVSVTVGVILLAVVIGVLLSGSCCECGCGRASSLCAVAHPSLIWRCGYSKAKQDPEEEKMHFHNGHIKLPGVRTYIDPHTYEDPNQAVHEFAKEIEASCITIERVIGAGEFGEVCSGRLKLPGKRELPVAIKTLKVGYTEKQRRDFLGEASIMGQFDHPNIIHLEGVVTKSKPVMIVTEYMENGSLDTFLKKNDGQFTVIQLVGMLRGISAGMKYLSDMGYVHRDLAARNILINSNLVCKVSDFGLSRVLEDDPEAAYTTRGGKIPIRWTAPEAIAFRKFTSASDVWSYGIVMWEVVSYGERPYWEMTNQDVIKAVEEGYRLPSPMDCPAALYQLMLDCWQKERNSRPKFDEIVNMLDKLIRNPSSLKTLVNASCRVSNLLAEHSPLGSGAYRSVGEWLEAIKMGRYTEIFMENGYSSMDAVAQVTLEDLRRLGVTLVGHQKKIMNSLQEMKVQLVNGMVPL
The conditions noted are these: read-out: % Enzyme Activity (relative to DMSO controls), EPHA5.

T1 sequence (P12931 whole entry): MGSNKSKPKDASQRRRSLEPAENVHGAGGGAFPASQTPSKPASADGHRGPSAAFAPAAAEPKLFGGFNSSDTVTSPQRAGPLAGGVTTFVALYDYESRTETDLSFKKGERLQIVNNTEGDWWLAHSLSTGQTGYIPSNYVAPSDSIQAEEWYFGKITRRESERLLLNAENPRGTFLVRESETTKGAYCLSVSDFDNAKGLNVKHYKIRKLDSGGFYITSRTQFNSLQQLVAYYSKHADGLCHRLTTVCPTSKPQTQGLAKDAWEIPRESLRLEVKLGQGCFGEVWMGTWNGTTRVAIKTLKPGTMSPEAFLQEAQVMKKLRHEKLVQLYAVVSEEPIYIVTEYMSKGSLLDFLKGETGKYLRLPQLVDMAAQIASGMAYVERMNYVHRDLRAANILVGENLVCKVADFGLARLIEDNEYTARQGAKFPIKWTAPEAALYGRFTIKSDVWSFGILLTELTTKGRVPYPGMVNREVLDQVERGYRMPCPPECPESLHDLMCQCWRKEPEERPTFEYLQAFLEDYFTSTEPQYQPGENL

Regarding `O=C(Nc1cnn(-c2csc(C(=O)NC3COC3)c2)c1)Nc1ccccc1Cl` [Compound 17, 4-(4-(3-(2-chlorophenyl)ureido)-1H-pyrazol-1-yl)-N-(oxetan-3-yl)thiophene-2-carboxamide], the remaining activity at 5 µM in test [1] is 91.1%; in [2] it was 94.2%; in [3] it was 87.5%; in test [4] it was 105%; in test [5], 79.4%; in test [6] it was 103%. The remaining activity at 5 µM was found to be 97.5% in test [7], 113% in test [8] and 96.9% in test [9].

Take `O=C(Nc1cnn(-c2csc(C(=O)NC3COC3)c2)c1)Nc1c(F)cccc1Cl` [Compound 25, 4-(4-(3-(2-chloro-6-fluorophenyl)ureido)-1H-pyrazol-1-yl)-N-(oxetan-3-yl)thiophene-2-carboxamide]: the remaining activity at 5 µM stood at 98.4% in test [1]; 94% in test [2]; 82.3% in [3]; 93.6% in test [4]; 62.2% in [5]; 87.2% in [6]. For the same compound, the remaining activity at 5 µM in test [7] was 100%; in test [8] it was 82.6%; in [9] it was 95%.

On to `Cc1sc(C(=O)NC2COC2)cc1-n1cc(NC(=O)Nc2c(F)cccc2Cl)cn1` [Compound 27, 4-(4-(3-(2-chloro-6-fluorophenyl)ureido)-1H-pyrazol-1-yl)-5-methyl-N-(oxetan-3-yl)thiophene-2-carboxamide], for which the remaining activity at 10 µM is 96.6% in test [1] (10 uM); 93.1% in test [2] (10 uM); 64.5% in [3] (10 uM); 104% in [4] (10 uM); 102% in test [5] (10 uM); 87.5% in test [6] (10 uM). Besides, the remaining activity at 10 µM was 118% in [7] (10 uM), 86.8% in test [8] (10 uM) and 106% in test [9] (10 uM).
